Article PMC7156458, “Synthetic biology based construction of biological activity-related library of fungal decalin-containing diterpenoid pyrones” (Nature Communications, 2020)

Target: Aβ42 (Homo sapiens, UniProt P05067)
Experiment: Th-T (thioflavin-T) assay of Aβ42 aggregation
Assay type: biochemical

Sequence of Aβ42 (P05067 672-713): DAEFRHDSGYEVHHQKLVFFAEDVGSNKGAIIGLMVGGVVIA

Structure (SMILES): C=C1CCC2C(C)(CCC=C(C)C)C(O)CCC2(C)C1Cc1c(OC)oc(CO)c(C(=O)OC)c1=O (stereo not drawn) [Compound 13]
- Fig. 7a Th-T reading, mean of three wells (column suffix _20, reading M101): 1.039
- Fig. 7a Th-T reading, mean of three wells (column suffix _20, reading M102): 1.036
- Fig. 7a Th-T reading, mean of three wells (column suffix _20, reading M103): 1.04
- Fig. 7a Th-T reading, mean of three wells (column suffix _20, reading M104): 1.043
- Fig. 7a Th-T reading, mean of three wells (column suffix _20, reading M105): 1.05
- Fig. 7a Th-T reading, mean of three wells (column suffix _20, reading M106): 1.043
- Th-T fluorescence, mean of three wells (Fig. 7a) (column suffix _50, measurement M19): 0.2105
- Th-T fluorescence, mean of three wells (Fig. 7a) (column suffix _50, measurement M20): 0.229
- Th-T fluorescence, mean of three wells (Fig. 7a) (column suffix _50, measurement M21): 0.2537
- Th-T fluorescence, mean of three wells (Fig. 7a) (column suffix _50, measurement M22): 0.2749
- Th-T fluorescence, mean of three wells (Fig. 7a) (column suffix _50, measurement M23): 0.2968
- Th-T fluorescence, mean of three wells (Fig. 7a) (column suffix _50, measurement M24): 0.3154
- Th-T fluorescence, mean of three wells (Fig. 7a) (column suffix _50, measurement M25): 0.3353
- Th-T fluorescence, mean of three wells (Fig. 7a) (column suffix _50, measurement M26): 0.3518
- Th-T fluorescence, mean of three wells (Fig. 7a) (column suffix _50, measurement M27): 0.3638
- Th-T fluorescence, mean of three wells (Fig. 7a) (column suffix _50, measurement M28): 0.3753
- Th-T fluorescence, mean of three wells (Fig. 7a) (column suffix _50, measurement M29): 0.3846
- Th-T assay signal, mean of three wells (Fig. 7a) (column suffix _50, reading M1): 0.5109
- Th-T assay signal, mean of three wells (Fig. 7a) (column suffix _50, reading M2): 0.3694
- Th-T assay signal, mean of three wells (Fig. 7a) (column suffix _50, reading M3): 0.2987
- Th-T assay signal, mean of three wells (Fig. 7a) (column suffix _50, reading M4): 0.2463
- Th-T assay signal, mean of three wells (Fig. 7a) (column suffix _50, reading M5): 0.2182
- Th-T assay signal, mean of three wells (Fig. 7a) (column suffix _50, reading M6): 0.2003
- Th-T assay signal, mean of three wells (Fig. 7a) (column suffix _50, reading M7): 0.1883
- Th-T assay signal, mean of three wells (Fig. 7a) (column suffix _50, reading M8): 0.1784
- Th-T assay signal, mean of three wells (Fig. 7a) (column suffix _50, reading M9): 0.17
- Th-T assay signal, mean of three wells (Fig. 7a) (column suffix _50, reading M10): 0.1689
- Th-T assay signal, mean of three wells (Fig. 7a) (column suffix _50, reading M11): 0.1659
- Th-T assay signal, mean of three wells (Fig. 7a) (column suffix _50, reading M12): 0.1664
- Th-T assay signal, mean of three wells (Fig. 7a) (column suffix _50, reading M13): 0.1648
- Th-T assay signal, mean of three wells (Fig. 7a) (column suffix _50, reading M14): 0.1691
- Th-T assay signal, mean of three wells (Fig. 7a) (column suffix _50, reading M15): 0.173
- Th-T assay signal, mean of three wells (Fig. 7a) (column suffix _50, reading M16): 0.1783
- Th-T assay signal, mean of three wells (Fig. 7a) (column suffix _50, reading M17): 0.1848
- Th-T assay signal, mean of three wells (Fig. 7a) (column suffix _50, reading M18): 0.1952
- Fig. 7a Th-T reading, mean of three wells (column suffix _50, reading M85): 0.4685
- Fig. 7a Th-T reading, mean of three wells (column suffix _50, reading M86): 0.4692
- Fig. 7a Th-T reading, mean of three wells (column suffix _50, reading M87): 0.4718
- Fig. 7a Th-T reading, mean of three wells (column suffix _50, reading M88): 0.4737
- Fig. 7a Th-T reading, mean of three wells (column suffix _50, reading M89): 0.4759
- Fig. 7a Th-T reading, mean of three wells (column suffix _50, reading M90): 0.4735
- Fig. 7a Th-T reading, mean of three wells (column suffix _50, reading M91): 0.4713
- Fig. 7a Th-T reading, mean of three wells (column suffix _50, reading M92): 0.4706
- Fig. 7a Th-T reading, mean of three wells (column suffix _50, reading M93): 0.4737
- Fig. 7a Th-T reading, mean of three wells (column suffix _50, reading M94): 0.4775
- Fig. 7a Th-T reading, mean of three wells (column suffix _50, reading M95): 0.4772
- Fig. 7a Th-T reading, mean of three wells (column suffix _50, reading M96): 0.4744
- Fig. 7a Th-T reading, mean of three wells (column suffix _50, reading M97): 0.4689
- Fig. 7a Th-T reading, mean of three wells (column suffix _50, reading M98): 0.4718
- Fig. 7a Th-T reading, mean of three wells (column suffix _50, reading M99): 0.4742
- Fig. 7a Th-T reading, mean of three wells (column suffix _50, reading M100): 0.4783
- Fig. 7a Th-T reading, mean of three wells (column suffix _50, reading M101): 0.4707
- Fig. 7a Th-T reading, mean of three wells (column suffix _50, reading M102): 0.471
- Fig. 7a Th-T reading, mean of three wells (column suffix _50, reading M103): 0.4747
- Fig. 7a Th-T reading, mean of three wells (column suffix _50, reading M104): 0.4762
- Fig. 7a Th-T reading, mean of three wells (column suffix _50, reading M105): 0.477
- Fig. 7a Th-T reading, mean of three wells (column suffix _50, reading M106): 0.4781
- Th-T fluorescence, mean of three wells (compound at 10, reading M41 of time course): 1.211
- Th-T fluorescence, mean of three wells (compound at 10, reading M42 of time course): 1.2969
- Th-T fluorescence, mean of three wells (compound at 10, reading M43 of time course): 1.3329
- Th-T fluorescence, mean of three wells (compound at 10, reading M44 of time course): 1.377
- Th-T fluorescence, mean of three wells (compound at 10, reading M45 of time course): 1.405
- Th-T fluorescence, mean of three wells (compound at 10, reading M46 of time course): 1.436
- Th-T fluorescence, mean of three wells (compound at 10, reading M47 of time course): 1.47
- Th-T fluorescence, mean of three wells (compound at 10, reading M48 of time course): 1.487
- Th-T fluorescence, mean of three wells (compound at 10, reading M49 of time course): 1.496
- Th-T fluorescence, mean of three wells (compound at 10, reading M50 of time course): 1.5062
- Th-T fluorescence, mean of three wells (compound at 10, reading M51 of time course): 1.523
- Th-T fluorescence, mean of three wells (compound at 10, reading M52 of time course): 1.537
- Th-T fluorescence, mean of three wells (compound at 10, reading M53 of time course): 1.531
- Th-T fluorescence, mean of three wells (compound at 10, reading M54 of time course): 1.542
- Th-T fluorescence, mean of three wells (compound at 10, reading M55 of time course): 1.541
- Th-T fluorescence, mean of three wells (compound at 10, reading M56 of time course): 1.545
- Th-T fluorescence, mean of three wells (compound at 10, reading M57 of time course): 1.551
- Th-T fluorescence, mean of three wells (compound at 10, reading M58 of time course): 1.551
- Th-T fluorescence, mean of three wells (compound at 10, reading M59 of time course): 1.549
- Th-T fluorescence, mean of three wells (compound at 10, reading M60 of time course): 1.541
- Th-T fluorescence, mean of three wells (compound at 10, reading M61 of time course): 1.554
- Th-T fluorescence, mean of three wells (compound at 10, reading M62 of time course): 1.56
- Th-T fluorescence, mean of three wells (compound at 20, reading M41 of time course): 0.3859
- Th-T fluorescence, mean of three wells (compound at 20, reading M42 of time course): 0.4228
- Th-T fluorescence, mean of three wells (compound at 20, reading M43 of time course): 0.4511
- Th-T fluorescence, mean of three wells (compound at 20, reading M44 of time course): 0.4829
- Th-T fluorescence, mean of three wells (compound at 20, reading M45 of time course): 0.5147
- Th-T fluorescence, mean of three wells (compound at 20, reading M46 of time course): 0.5564
- Th-T fluorescence, mean of three wells (compound at 20, reading M47 of time course): 0.5957
- Th-T fluorescence, mean of three wells (compound at 20, reading M48 of time course): 0.6248
- Th-T fluorescence, mean of three wells (compound at 20, reading M49 of time course): 0.6553
- Th-T fluorescence, mean of three wells (compound at 20, reading M50 of time course): 0.6948
- Th-T fluorescence, mean of three wells (compound at 20, reading M51 of time course): 0.7326
- Th-T fluorescence, mean of three wells (compound at 20, reading M52 of time course): 0.7726
- Th-T fluorescence, mean of three wells (compound at 20, reading M53 of time course): 0.8004
- Th-T fluorescence, mean of three wells (compound at 20, reading M54 of time course): 0.8343
- Th-T fluorescence, mean of three wells (compound at 20, reading M55 of time course): 0.8641
- Th-T fluorescence, mean of three wells (compound at 20, reading M56 of time course): 0.9063
- Th-T fluorescence, mean of three wells (compound at 20, reading M57 of time course): 0.941
- Th-T fluorescence, mean of three wells (compound at 20, reading M58 of time course): 0.9604
- Th-T fluorescence, mean of three wells (compound at 20, reading M59 of time course): 0.9808
- Th-T fluorescence, mean of three wells (compound at 20, reading M60 of time course): 0.9918
- Th-T fluorescence, mean of three wells (compound at 20, reading M61 of time course): 1.018
- Th-T fluorescence, mean of three wells (compound at 20, reading M62 of time course): 1.031
- Th-T fluorescence, mean of three wells (compound at 50, reading M41 of time course): 0.4483
- Th-T fluorescence, mean of three wells (compound at 50, reading M42 of time course): 0.4529
- Th-T fluorescence, mean of three wells (compound at 50, reading M43 of time course): 0.452
- Th-T fluorescence, mean of three wells (compound at 50, reading M44 of time course): 0.4555
- Th-T fluorescence, mean of three wells (compound at 50, reading M45 of time course): 0.4534
- Th-T fluorescence, mean of three wells (compound at 50, reading M46 of time course): 0.4569
- Th-T fluorescence, mean of three wells (compound at 50, reading M47 of time course): 0.4654
- Th-T fluorescence, mean of three wells (compound at 50, reading M48 of time course): 0.4625
- Th-T fluorescence, mean of three wells (compound at 50, reading M49 of time course): 0.4637
- Th-T fluorescence, mean of three wells (compound at 50, reading M50 of time course): 0.4613
- Th-T fluorescence, mean of three wells (compound at 50, reading M51 of time course): 0.4698
- Th-T fluorescence, mean of three wells (compound at 50, reading M52 of time course): 0.4696
- Th-T fluorescence, mean of three wells (compound at 50, reading M53 of time course): 0.4691
